From article doi:10.1101/2023.11.24.568596v1 (biorxiv, 2023)
Each block holds one molecule with its values, some of them ahead of it.

Assays:
Conditions in all cases: binder
[1] = target: T1, AurA (Homo sapiens, UniProt O14965)
T1 sequence (O14965 1-403): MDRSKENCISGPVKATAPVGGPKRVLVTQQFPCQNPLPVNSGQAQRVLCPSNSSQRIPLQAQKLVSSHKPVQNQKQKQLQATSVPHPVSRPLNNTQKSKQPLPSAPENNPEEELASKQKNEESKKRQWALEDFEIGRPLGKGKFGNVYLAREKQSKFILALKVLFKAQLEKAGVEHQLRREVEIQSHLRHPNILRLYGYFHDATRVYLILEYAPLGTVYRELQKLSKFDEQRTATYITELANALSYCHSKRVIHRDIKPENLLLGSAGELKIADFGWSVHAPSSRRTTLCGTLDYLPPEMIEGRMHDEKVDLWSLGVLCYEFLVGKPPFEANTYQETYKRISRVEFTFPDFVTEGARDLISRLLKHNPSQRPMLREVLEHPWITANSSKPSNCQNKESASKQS

[2] = target: LOK (Homo sapiens, UniProt O94804)
Chain of LOK (O94804 whole entry): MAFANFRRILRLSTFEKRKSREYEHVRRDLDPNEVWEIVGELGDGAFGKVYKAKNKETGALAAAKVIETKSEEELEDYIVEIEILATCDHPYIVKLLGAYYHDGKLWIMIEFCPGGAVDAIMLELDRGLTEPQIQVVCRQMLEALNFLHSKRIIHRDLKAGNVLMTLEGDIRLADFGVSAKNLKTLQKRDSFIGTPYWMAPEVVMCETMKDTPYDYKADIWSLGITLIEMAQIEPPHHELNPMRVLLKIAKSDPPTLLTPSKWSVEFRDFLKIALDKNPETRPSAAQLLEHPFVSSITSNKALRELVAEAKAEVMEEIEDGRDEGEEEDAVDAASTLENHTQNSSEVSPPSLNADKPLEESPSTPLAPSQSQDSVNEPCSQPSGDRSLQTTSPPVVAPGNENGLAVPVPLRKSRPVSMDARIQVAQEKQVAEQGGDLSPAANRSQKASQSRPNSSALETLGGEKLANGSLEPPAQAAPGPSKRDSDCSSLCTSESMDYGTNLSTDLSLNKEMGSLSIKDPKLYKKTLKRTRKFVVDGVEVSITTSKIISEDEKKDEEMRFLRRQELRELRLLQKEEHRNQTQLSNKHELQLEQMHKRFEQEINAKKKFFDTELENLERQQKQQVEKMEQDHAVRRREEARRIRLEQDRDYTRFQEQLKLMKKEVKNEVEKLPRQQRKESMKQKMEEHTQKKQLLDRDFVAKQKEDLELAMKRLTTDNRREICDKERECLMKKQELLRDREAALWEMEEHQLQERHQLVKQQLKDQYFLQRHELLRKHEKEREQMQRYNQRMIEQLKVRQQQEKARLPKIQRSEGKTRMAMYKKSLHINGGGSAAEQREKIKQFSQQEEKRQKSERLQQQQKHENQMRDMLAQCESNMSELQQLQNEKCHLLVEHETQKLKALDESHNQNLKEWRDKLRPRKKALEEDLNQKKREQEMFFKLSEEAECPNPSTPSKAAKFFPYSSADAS

[3] = target: T2, BMX (Homo sapiens, UniProt P51813)
T2 sequence (P51813 1-675): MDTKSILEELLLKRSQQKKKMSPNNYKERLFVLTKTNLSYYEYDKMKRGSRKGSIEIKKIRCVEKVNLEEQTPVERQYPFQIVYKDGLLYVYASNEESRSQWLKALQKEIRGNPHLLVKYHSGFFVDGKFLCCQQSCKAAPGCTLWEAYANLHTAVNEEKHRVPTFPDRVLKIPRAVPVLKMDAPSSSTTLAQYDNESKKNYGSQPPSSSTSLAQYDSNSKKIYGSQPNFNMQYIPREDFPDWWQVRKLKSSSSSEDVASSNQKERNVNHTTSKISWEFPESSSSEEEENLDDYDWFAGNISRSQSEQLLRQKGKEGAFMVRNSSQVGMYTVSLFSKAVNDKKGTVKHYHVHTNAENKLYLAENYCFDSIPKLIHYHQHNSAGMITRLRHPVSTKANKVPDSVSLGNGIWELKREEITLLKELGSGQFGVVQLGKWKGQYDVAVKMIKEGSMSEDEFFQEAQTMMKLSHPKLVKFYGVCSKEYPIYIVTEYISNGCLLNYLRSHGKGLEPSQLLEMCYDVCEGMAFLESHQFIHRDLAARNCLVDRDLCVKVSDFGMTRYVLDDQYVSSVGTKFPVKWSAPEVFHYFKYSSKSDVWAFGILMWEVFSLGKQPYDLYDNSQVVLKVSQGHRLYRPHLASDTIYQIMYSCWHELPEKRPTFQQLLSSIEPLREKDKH

[4] = target: CaMKK2 (Homo sapiens, UniProt Q96RR4)
Chain of CaMKK2 (Q96RR4 whole entry): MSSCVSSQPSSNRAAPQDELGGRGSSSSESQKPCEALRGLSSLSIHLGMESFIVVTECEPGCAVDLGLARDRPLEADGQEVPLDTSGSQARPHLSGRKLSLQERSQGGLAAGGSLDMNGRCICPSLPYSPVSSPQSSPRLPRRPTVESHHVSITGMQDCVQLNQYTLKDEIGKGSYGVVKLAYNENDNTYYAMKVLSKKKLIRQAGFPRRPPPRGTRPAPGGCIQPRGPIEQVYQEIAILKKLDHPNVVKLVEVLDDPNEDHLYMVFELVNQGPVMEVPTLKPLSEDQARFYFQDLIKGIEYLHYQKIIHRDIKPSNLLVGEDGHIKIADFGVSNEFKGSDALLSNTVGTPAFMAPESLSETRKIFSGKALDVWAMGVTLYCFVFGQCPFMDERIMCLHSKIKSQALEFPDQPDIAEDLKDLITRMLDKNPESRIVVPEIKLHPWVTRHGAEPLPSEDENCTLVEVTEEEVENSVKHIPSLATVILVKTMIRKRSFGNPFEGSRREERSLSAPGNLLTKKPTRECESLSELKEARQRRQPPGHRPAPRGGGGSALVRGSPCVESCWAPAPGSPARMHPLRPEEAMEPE

[5] = target: T3, DRAK1 (Homo sapiens, UniProt Q9UEE5)
T3 sequence (Q9UEE5 1-414): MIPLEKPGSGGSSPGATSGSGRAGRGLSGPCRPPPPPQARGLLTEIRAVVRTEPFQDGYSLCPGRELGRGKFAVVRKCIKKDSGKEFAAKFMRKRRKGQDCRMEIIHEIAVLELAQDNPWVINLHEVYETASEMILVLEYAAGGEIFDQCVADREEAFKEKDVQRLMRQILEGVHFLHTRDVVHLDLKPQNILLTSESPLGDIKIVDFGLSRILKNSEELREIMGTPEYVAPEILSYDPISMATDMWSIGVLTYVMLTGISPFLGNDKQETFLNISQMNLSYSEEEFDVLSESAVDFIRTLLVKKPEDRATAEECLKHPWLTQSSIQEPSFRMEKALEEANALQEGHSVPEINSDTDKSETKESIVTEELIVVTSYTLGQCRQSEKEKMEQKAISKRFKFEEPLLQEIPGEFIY

[6] = target: GPRK5 (Homo sapiens, UniProt P34947)
Chain of GPRK5 (P34947 whole entry): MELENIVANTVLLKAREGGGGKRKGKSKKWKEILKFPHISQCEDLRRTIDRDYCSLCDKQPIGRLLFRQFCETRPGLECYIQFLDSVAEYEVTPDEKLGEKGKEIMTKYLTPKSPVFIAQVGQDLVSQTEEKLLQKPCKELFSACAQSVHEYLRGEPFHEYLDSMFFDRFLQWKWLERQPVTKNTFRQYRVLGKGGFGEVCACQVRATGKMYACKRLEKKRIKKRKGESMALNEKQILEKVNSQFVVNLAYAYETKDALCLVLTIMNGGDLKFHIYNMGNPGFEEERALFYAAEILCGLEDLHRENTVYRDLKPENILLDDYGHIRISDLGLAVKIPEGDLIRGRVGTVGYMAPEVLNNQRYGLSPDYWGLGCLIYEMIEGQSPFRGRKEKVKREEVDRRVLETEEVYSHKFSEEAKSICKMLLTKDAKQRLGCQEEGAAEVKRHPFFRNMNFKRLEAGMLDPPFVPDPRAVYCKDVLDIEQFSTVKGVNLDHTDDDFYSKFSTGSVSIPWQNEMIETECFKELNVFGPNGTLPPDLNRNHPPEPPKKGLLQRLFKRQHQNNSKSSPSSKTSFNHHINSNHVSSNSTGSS

[7] = target: T4, MYT1 (Homo sapiens, UniProt Q99640)
T4 sequence (Q99640 1-499): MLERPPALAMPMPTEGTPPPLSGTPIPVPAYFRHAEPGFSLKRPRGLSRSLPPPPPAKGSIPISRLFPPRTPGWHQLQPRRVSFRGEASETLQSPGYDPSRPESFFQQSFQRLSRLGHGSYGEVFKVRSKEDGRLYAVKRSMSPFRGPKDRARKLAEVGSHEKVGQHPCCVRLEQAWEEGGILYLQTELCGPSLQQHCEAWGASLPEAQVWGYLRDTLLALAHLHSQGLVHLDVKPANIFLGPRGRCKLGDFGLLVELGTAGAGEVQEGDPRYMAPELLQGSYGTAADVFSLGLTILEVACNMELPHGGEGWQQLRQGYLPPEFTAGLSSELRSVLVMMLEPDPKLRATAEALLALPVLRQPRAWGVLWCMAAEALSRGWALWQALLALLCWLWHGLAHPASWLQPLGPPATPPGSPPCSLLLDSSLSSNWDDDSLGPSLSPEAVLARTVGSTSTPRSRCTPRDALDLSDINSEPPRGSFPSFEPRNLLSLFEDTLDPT

[8] = target: T5, DRAK2 (Homo sapiens, UniProt O94768)
T5 sequence (O94768 1-372): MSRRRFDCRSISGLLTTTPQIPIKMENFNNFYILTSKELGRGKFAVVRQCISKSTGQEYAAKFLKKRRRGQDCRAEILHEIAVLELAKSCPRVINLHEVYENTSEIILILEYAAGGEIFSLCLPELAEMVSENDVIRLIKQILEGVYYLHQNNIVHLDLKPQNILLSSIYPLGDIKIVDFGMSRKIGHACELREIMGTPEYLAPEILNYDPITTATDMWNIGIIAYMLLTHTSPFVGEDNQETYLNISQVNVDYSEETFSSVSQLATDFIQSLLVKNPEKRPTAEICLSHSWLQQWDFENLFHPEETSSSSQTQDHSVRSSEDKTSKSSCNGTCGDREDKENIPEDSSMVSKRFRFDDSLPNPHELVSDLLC

[9] = target: CDKL1 (Homo sapiens, UniProt Q00532)
Chain of CDKL1 (Q00532 whole entry): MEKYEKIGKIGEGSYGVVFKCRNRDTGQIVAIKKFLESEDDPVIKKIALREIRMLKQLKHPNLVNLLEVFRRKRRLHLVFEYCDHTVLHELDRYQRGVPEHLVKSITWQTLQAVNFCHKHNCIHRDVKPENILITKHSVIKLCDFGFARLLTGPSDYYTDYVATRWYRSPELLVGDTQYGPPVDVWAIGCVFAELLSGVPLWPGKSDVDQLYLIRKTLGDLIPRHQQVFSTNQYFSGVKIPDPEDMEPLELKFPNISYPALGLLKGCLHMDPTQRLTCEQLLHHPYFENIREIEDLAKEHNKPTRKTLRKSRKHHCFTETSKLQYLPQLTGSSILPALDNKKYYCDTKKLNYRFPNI

ΔTm 28 [1]: 6.5 °C
ΔTm 28 [2]: -0.7 °C
ΔTm 28 [3]: 3.1 °C
ΔTm 28 [4]: 2.4 °C
ΔTm 28 [5]: 0.3 °C
ΔTm 28 [6]: -0.6 °C
ΔTm 28 [7]: -4.3 °C
ΔTm 28 [8]: 8.4 °C
ΔTm 28 [9]: 0.7 °C
SMILES: Cc1cccc(-c2ccc(-c3cc4cnc(Nc5cc(C(F)(F)F)ccc5C)nc4n(CCCCN)c3=O)c(Cl)c2)n1 [compound 28, 8-(4-Aminobutyl)-6-(2-chloro-4-(6-methylpyridin-2-yl)phenyl)-2-((2-methyl-5-(trifluoromethyl)phenyl)amino)pyrido[2,3-d]pyrimidin-7(8H)-one]

ΔTm MR30 (27) [1]: -0.3 °C
ΔTm MR30 (27) [2]: -0.6 °C
ΔTm MR30 (27) [3]: 1.7 °C
ΔTm MR30 (27) [4]: 0.5 °C
ΔTm MR30 (27) [5]: -0.4 °C
ΔTm MR30 (27) [6]: -1.1 °C
ΔTm MR30 (27) [7]: -2.8 °C
ΔTm MR30 (27) [8]: 0.8 °C
ΔTm MR30 (27) [9]: 0.9 °C
SMILES: Cc1cccc(-c2ccc(-c3cc4cnc(NCCCN5CCCC5=O)nc4n(CCCCN)c3=O)c(Cl)c2)n1 [compound 27, MR30]

ΔTm 30 [1]: 8.6 °C
ΔTm 30 [2]: -0.4 °C
ΔTm 30 [3]: 6.6 °C
ΔTm 30 [4]: 7.5 °C
ΔTm 30 [5]: 4.0 °C
ΔTm 30 [6]: -0.9 °C
ΔTm 30 [7]: -2.8 °C
ΔTm 30 [8]: 12.3 °C
ΔTm 30 [9]: 1.6 °C
SMILES: Cc1cccc(-c2ccc(-c3cc4cnc(Nc5ccc(CCCO)cc5)nc4n(CCCCN)c3=O)c(Cl)c2)n1 [compound 30, 8-(4-Aminobutyl)-6-(2-chloro-4-(6-methylpyridin-2-yl)phenyl)-2-((4-(3-hydroxypropyl)phenyl)amino)pyrido[2,3-d]pyrimidin-7(8H)-one]

ΔTm 31 [1]: 4.4 °C
ΔTm 31 [2]: -0.4 °C
ΔTm 31 [3]: 7.0 °C
ΔTm 31 [4]: 5.2 °C
ΔTm 31 [5]: 4.5 °C
ΔTm 31 [6]: -0.2 °C
ΔTm 31 [7]: -2.3 °C
ΔTm 31 [8]: 11.7 °C
ΔTm 31 [9]: 2.1 °C
SMILES: Cc1cccc(-c2ccc(-c3cc4cnc(Nc5ccc(O)cc5)nc4n(CCCCN)c3=O)c(Cl)c2)n1 [compound 31, 8-(4-Aminobutyl)-6-(2-chloro-4-(6-methylpyridin-2-yl)phenyl)-2-((4-hydroxyphenyl)amino) pyrido[2,3-d]pyrimidin-7(8H)-one]

ΔTm 32 [1]: 5.9 °C
ΔTm 32 [2]: -0.2 °C
ΔTm 32 [3]: 7.3 °C
ΔTm 32 [4]: 6.8 °C
ΔTm 32 [5]: 5.1 °C
ΔTm 32 [6]: -0.4 °C
ΔTm 32 [7]: -2.6 °C
ΔTm 32 [8]: 12.2 °C
ΔTm 32 [9]: 1.9 °C
SMILES: Cc1cccc(-c2ccc(-c3cc4cnc(Nc5ccc(C)c(O)c5)nc4n(CCCCN)c3=O)c(Cl)c2)n1 [compound 32, 8-(4-Aminobutyl)-6-(2-chloro-4-(6-methylpyridin-2-yl)phenyl)-2-((3-hydroxy-4-methylphenyl)amino)pyrido[2,3-d]pyrimidin-7(8H)-one]

ΔTm 29 [1]: -2.1 °C
ΔTm 29 [2]: -0.4 °C
ΔTm 29 [3]: 2.1 °C
ΔTm 29 [4]: 0.7 °C
ΔTm 29 [5]: 1.3 °C
ΔTm 29 [6]: -0.4 °C
ΔTm 29 [7]: -0.9 °C
ΔTm 29 [8]: 4.6 °C
ΔTm 29 [9]: 0.5 °C
SMILES: Cc1cccc(-c2ccc(-c3cc4cnc(NCCCN5CCNCC5)nc4n(CCCCN)c3=O)c(Cl)c2)n1 [compound 29, 8-(4-Aminobutyl)-6-(2-chloro-4-(6-methylpyridin-2-yl)phenyl)-2-((3-(piperazin-1-yl)propyl)amino)pyrido[2,3-d]pyrimidin-7(8H)-one]
